Consider 1 compound from patent publication US20190352358A1, “COMPOUNDS, COMPOSITIONS AND USES THEREOF FOR IMPROVEMENT OF BONE DISORDERS” (ALIZE PHARMA III SAS, priority 2017, published 2019).

Series [1] concerns ovariectomized (OVX) rats. Put plainly: Bone μCT of proximal tibia in ovariectomized (OVX) rats after 6-week treatment. The format is in vivo, female Sprague-Dawley rats. To be noted: 0.8, 1.6 or 3.2 mg/kg s.c. twice a day, 6 weeks; dose-dependent. The procedure:
(§1) Effects on bone of three doses of HBD1 (3-11) with stearic acid at the N-terminus (C18:0) analog were tested in vivo in ovariectomized (OVX) rats, a recognized model for human osteoporosis, in particular postmenopausal osteoporosis. Each group included ten female Sprague-Dawley rats that were four months of age at the beginning of the in-life phase of the study. Treatment started six weeks after OVX surgery and lasted for six additional weeks. Groups were randomized before surgery according to body weight and tibial metaphysis Bone Mineral Density (BMD) as measured by peripheral quantitative computed tomography (pQCT) from Norland Stratec XCT Research SA equipment (Norland Stratec Medizintechnik, Birkenfeld, Germany).
(§2) The peptide was reconstituted in saline solution (0.9% NaCl) and administered subcutaneously twice a day at the doses of 0.8 mg/kg (low), 1.6 mg/kg (med) or 3.2 mg/kg (high) in a volume of 1 mL/kg. The control group was administered twice a day with saline by s.c. administration. Rats were weighed once a week and the volume of dosing solution administered was adjusted accordingly.
High-resolution micro-computed tomography (μCT) measurements using SkyScan 1072 or 1172 High Resolution Scanner (Bruker microCT, Kontich, Belgium) were performed ex vivo in right proximal tibia at the end of the treatment period for measuring bone volume, bone cross-sectional dimensions and bone microarchitecture. FIGS. 5A, 5B and 5C show the percent increase from OVX animals HBD1 (3-11) with stearic acid at the N-terminus (C18:0) groups for following selected parameters: Bone Volume Fraction (BV/TV; %), Trabecular number (Tb.N; mm^−1) and Connectivity Density (Conn.D; mm^−3).

Series [2] is described as follows: Pharmacokinetics of acylated analogs in male Sprague Dawley rats after subcutaneous injection (Example 11). The format is in vivo. Particulars: sc, rat.
Series [3] is described as follows: Pharmacokinetics in Göttingen minipigs after intravenous and subcutaneous injection (Example 12). The format is in vivo. Particulars: minipig; for Cmax: read-out: maximum concentrations (Cmax), mean; for AUC(0-t): read-out: mean total exposure (AUC0-t); for Tmax: read-out: times post dose for maximum concentration (Tmax), median. The protocol:
The peptide was reconstituted in saline (0.9% NaCl). Three Göttingen minipigs (approximately 8-10 months of age) were used per group. Intravenous doses were administered into an ear vein at the dose of 0.5 μmol net peptide/kg. Subcutaneous doses were administered into the right flank of each animal, also at the dose of 0.5 μmol net peptide/kg. Following dosing, serial whole blood samples (ca. 0.25 mL) were collected from a jugular vein into K2EDTA treated containers. Following each blood sample collection, samples were placed into a cooling block at 4° C. Samples were collected prior to dosing then at 5 and 30 minutes then 1, 2, 4, 8, 25, 48, 72 and 96 hours post dose for intravenous injection and at 15 and 30 minutes then 1, 2, 4, 8, 25, 48, 72 and 96 hours post dose for subcutaneous injection.
Blood samples were centrifuged at 10000×g for 2 minutes at 4° C. and resultant plasma aspirated off into clean fully, labelled tubes. Plasma samples were snap frozen following aspiration then stored at −80° C. Peptide extraction and analysis were performed as described in Example 9. The limit of quantification of this method is 0.0015 nmol/mL. All values below this limit of quantification are considered as zero.

Series [4] relates to ovariectomized (OVX) rats. Put plainly: Bone biomechanical tests (lumbar vertebrae compression, femoral neck cantilever bending) in OVX rats. The format is in vivo, female Sprague-Dawley rats. Particulars: 3.2 mg/kg BID s.c., 6 weeks. The protocol:
as §1, §2
Bone biomechanical properties were determined by compression test using Instron 3343 biomechanical testing system (Instron, Norwood, Mass., USA). […]

Series [5] can be described thus: Pharmacokinetics in male Sprague Dawley rats after intravenous and subcutaneous injection (Example 10). The format is in vivo. Particulars: 1 μmol net peptide/kg, rat; for Tlast (last time point with detectable peptide): listed as HBD1 (3-11) with stearic acid at the N-terminus (C18:0). The procedure:
The peptides were reconstituted in saline (0.9% NaCl). Three male Sprague Dawley rats were used per group. Intravenous doses were administered into a lateral tail vein at the dose of 1 μmol net peptide/kg. Subcutaneous doses were administered into the right flank of each animal, also at the dose of 1 μmol net peptide/kg. Following dosing, serial whole blood samples (ca. 0.25 mL) were collected from a lateral tail vein into K2EDTA treated containers. Following each blood sample collection, samples were placed into a cooling block at 4° C. Samples were collected prior to dosing then at 2, 5, 15 and 30 minutes then 1, 2, 4, 6 and 8 and 24 hours post dose for intravenous injection and at 15 and 30 minutes then 1, 2, 4, 6, 8 and 24 hours post dose for subcutaneous injection.
Blood samples were centrifuged at 10000×g for 2 minutes at 4° C. and resultant plasma aspirated off into clean fully, labelled tubes. Plasma samples were snap frozen following aspiration then stored at −80° C. Peptides were extracted and analyzed as described in Example 9. The limits of quantification of these methods were 0.001 nmol/mL for cyclic HBD1 (3-11) and HBD1 (3-11) and 0.003 nmol/mL for HBD1 (1-13). All values below these limits of quantification were considered as zero.

Where [6] appears, read: Göttingen, plasma, 0.5 umol/kg, iv, 0.5 μmol/kg.
Where [7] appears, read: Göttingen, plasma, 0.5 umol/kg, sc, 0.5 μmol/kg.
[8] abbreviates: male, Sprague Dawley, plasma, iv.
[9] abbreviates: male, Sprague Dawley, plasma, sc.

Residues, ends and D or L forms follow the SMILES beside them. *: point of attachment. Stearoyl = CCCCCCCCCCCCCCCCCC(=O)*

Turning to `CCCCCCCCCCCCCCCCCC(=O)N[C@@H](Cc1c[nH]cn1)C(=O)N[C@@H](CC(C)C)C(=O)NCC(=O)N[C@@H](CC(C)C)C(=O)N[C@@H](CCC(=O)O)C(=O)N[C@@H](CCC(=O)O)C(=O)N1CCC[C@H]1C(=O)N[C@@H](CCCCN)C(=O)N[C@@H](CCCCN)C(=O)O` [SEQ ID NO: 73, C18:0-HLGLEEPKK] (Stearoyl-HLGLEEPKK-OH; C-terminus assumed), the “Bone Volume Fraction (BV/TV) at tibial metaphysis vs OVX vehicle” value in series [1] was “increased”. Also, the “Connectivity Density (Conn.D) at tibial metaphysis vs OVX vehicle” value in series [1] was “increased”. Moreover, the “Trabecular number (Tb.N) at tibial metaphysis vs OVX vehicle” value in series [1] was “increased”. For the same compound, the “peptide exposure compared among acylated peptides (in words)” value in series [2] is listed as “higher peptide exposure”. The Cmax was found to be 6.27 µM in series [3] (setting [6]), 0.29 µM in series [3] (setting [7]), 10.2 µM in series [5] (setting [8]) and 0.54 µM in series [5] (setting [9]). The AUC(0-t) amounted to 3.75 µM·h in series [3] (setting [6]), 3.07 µM·h in series [3] (setting [7]), 9.28 µM·h in series [5] (setting [8]) and 4.81 µM·h in series [5] (setting [9]). The Tmax amounted to 0.083 h in series [3] (setting [6]), 4 h in series [3] (setting [7]), 0.033 h in series [5] (setting [8]) and 4 h in series [5] (setting [9]). Also, the bioavailability was 83.1% in series [3] (Göttingen, plasma, sc, 0.5 umol/kg, read-out: mean calculated subcutaneous bioavailability relative to i.v.) and 52% in series [5] (male, Sprague Dawley, plasma, subcutaneous, sc vs iv, read-out: F (bioavailability)). The “exposure duration after subcutaneous administration” value in series [3] (sc, 0.5 μmol/kg) is “up to 25 hours”. Moreover, in series [4], the “biomechanical properties of femoral neck (load at break point)” value is on record as “improved”. In addition, the “biomechanical properties of lumbar vertebrae (maximal load, energy absorption at maximal load, stress at maximal load)” value in series [4] is “improved”. Also, the “Tlast (last time point with detectable peptide)” value in series [5] (iv) and in series [5] (sc) was 8 h each time.

What is called bioavailability is the share of a dose that reaches the circulation, judged against a reference dose that is usually intravenous.
